Laboratory results as given in US12636300B2, “Methods of treatment and maintenance therapy for bladder cancer using gemcitabine” (Janssen Biotech, Inc., priority 2017, dated 2026).

Experiments:
[1] = test system: muscle-invasive urothelial cell carcinoma of the bladder; assay: Clinical response assessment after TAR-200 induction (cystoscopy, CT/MRI/PET, biopsy); format: in vivo, human
Method: (§1) Subjects receive the first TAR-200 transurethrally via the TARIS Inserter on Study Day 0. On Study Day 21 (±3 days), this first TAR-200 will be removed via flexible or rigid cystoscopy, and then the second TAR-200 will be placed. TAR-200 is an intravesicular device that contains 225 mg of gemcitabine. This removal/replacement procedure is repeated for a third and fourth dosing cycle in the induction period on Study Days 42 (±3 days), and 63 (±3 days), respectively. The fourth TAR-200 will be removed on Study Day 84 (±3 days), and the 3-month response assessment will be conducted.
During the maintenance period, a 21-day dosing cycle occurs every quarter (3 months) starting at approximately 6 months. Subjects may continue to undergo quarterly dosing cycles for 3 dosing cycles.
All subjects are assessed for clinical response every 3 months by cystoscopy, pelvic computed tomography (CT)/magnetic resonance imaging (MRI)/positron emission tomography (PET), and biopsy (at 12 weeks only, unless clinically indicated). Subjects are also assessed for symptom control at 3, 6, 9, and 12 weeks, and approximately every month during the maintenance period.
The secondary endpoints are proportion of subjects with clinical complete response (cCR), clinical partial response (cPR), stable disease (SD), and progression on the basis of visual lesions on cystoscopy, pelvic CT/MRI/PET, and biopsy. For purposes of this study, cCR means no evidence of the disease in the bladder or notes. cPR means in the previously N0 subject, a down staging in bladder tumor burden to <pT2 disease and no evidence of nodal disease burden or in the N1-N3 subject: a down staging in bladder tumor burden to <pT2 disease and no evidence of an increase in the size of nodal disease burden or no evidence of down staging in bladder tumor burden and a decrease in the size of nodal disease burden. Stable disease means persistent MIBC without evidence of metastasis. Progression means M1 disease or significant increase in burden of disease in bladder based upon cystoscopy and Ct/MRI/PET. […]

[2] = Safety and tolerability of 4 consecutive 21 day TAR-200 dosing cycles; format: in vivo, human; details: four consecutive 3-week delivery periods; patients unfit for radical cystectomy
Method: as §1
The primary endpoint is assessment of safety and tolerability of 4 consecutive 21 day TAR-200 dosing cycles.
Twenty three patients were enrolled in the study as described in Example 1. The age range among the enrolled patients is from 50 to 98. The mean age is 82.6, and the median age is 84. The patients were treated and assessed according to the methods described therein. Patients that accomplished a complete response, partial response or stable disease after the induction phase received the maintenance phase treatment.

## Nc1ccn([C@@H]2O[C@H](CO)[C@@H](O)C2(F)F)c(=O)n1 [gemcitabine]
[1]; after the induction therapy
  duration of durable effect after the induction therapy: at least 100 days
[1]; per protocol basis, end of induction period (Day 84)
  objective response rate (ORR): 80%
[1]; per protocol basis, end of induction period (Day 84), ten patients who completed four cycles
  complete response rate: 50%
[2]
  tolerability of four consecutive doses (induction): well tolerate
